In ChEMBL document CHEMBL2440076, “New triarylpyrazoles as broad-spectrum anticancer agents: design, synthesis, and biological evaluation” (Eur J Med Chem, 2013):

Columns and labels:
Format in all cases: functional
NCI-H322M = experiment: Growth inhibition of human NCI-H322M cells assessed as cell growth at 10^-7 M after 48 hrs by sulforhodamine B assay; settings: read-out: Activity
TK-10 = experiment: Growth inhibition of human TK10 cells assessed as cell growth at 10^-7 M after 48 hrs by sulforhodamine B assay; settings: TK-10, 48 h, read-out: Activity
CCRF-CEM = experiment: Growth inhibition of human CCRF-CEM cells assessed as cell growth at 10^-7 M after 48 hrs by sulforhodamine B assay; settings: read-out: Activity
RXF 393 = experiment: Growth inhibition of human RXF393 cells assessed as cell growth at 10^-6 M after 48 hrs by sulforhodamine B assay; settings: RXF 393, 48 h, read-out: Activity
SF-268 = experiment: Growth inhibition of human SF268 cells assessed as cell growth at 10^-8 M after 48 hrs by sulforhodamine B assay; settings: SF-268, 48 h, read-out: Activity
SNB-75 [1] = experiment: Growth inhibition of human SNB75 cells assessed as cell growth at 10^-6 M after 48 hrs by sulforhodamine B assay; settings: SNB-75, 48 h, read-out: Activity
K562 = experiment: Growth inhibition of human K562 cells assessed as cell growth at 10^-4 M after 48 hrs by sulforhodamine B assay; settings: K562, 48 h, read-out: Activity
UACC-62 [2] = experiment: Growth inhibition of human UACC62 cells assessed as cell growth at 10^-4 M after 48 hrs by sulforhodamine B assay; settings: UACC-62, 48 h, read-out: Activity
SNB-75 [3] = experiment: Growth inhibition of human SNB75 cells assessed as cell growth at 10^-4 M after 48 hrs by sulforhodamine B assay; settings: SNB-75, 48 h, read-out: Activity
BT-549 = experiment: Growth inhibition of human BT549 cells assessed as cell growth at 10^-7 M after 48 hrs by sulforhodamine B assay; settings: BT-549, 48 h, read-out: Activity
HOP-62 = experiment: Growth inhibition of human HOP62 cells assessed as cell growth at 10^-6 M after 48 hrs by sulforhodamine B assay; settings: HOP-62, 48 h, read-out: Activity
OVCAR-4 [4] = experiment: Growth inhibition of human OVCAR4 cells assessed as cell growth at 10^-7 M after 48 hrs by sulforhodamine B assay; settings: OVCAR-4, 48 h, read-out: Activity
SNB-75 [5] = experiment: Growth inhibition of human SNB75 cells assessed as cell growth at 10^-5 M after 48 hrs by sulforhodamine B assay; settings: SNB-75, 48 h, read-out: Activity
OVCAR-4 [6] = experiment: Growth inhibition of human OVCAR4 cells assessed as cell growth at 10^-8 M after 48 hrs by sulforhodamine B assay; settings: OVCAR-4, 48 h, read-out: Activity
HL-60(TB) = experiment: Growth inhibition of human HL-60(TB) cells assessed as cell growth at 10^-8 M after 48 hrs by sulforhodamine B assay; settings: HL-60, 48 h, read-out: Activity
NCI-H23 [7] = experiment: Growth inhibition of human NCI-H23 cells assessed as cell growth at 10^-5 M after 48 hrs by sulforhodamine B assay; settings: NCI-H23, 48 h, read-out: Activity
HOP-92 = experiment: Growth inhibition of human HOP92 cells assessed as cell growth at 10^-6 M after 48 hrs by sulforhodamine B assay; settings: HOP-92, 48 h, read-out: Activity
OVCAR-8 = experiment: Growth inhibition of human OVCAR8 cells assessed as cell growth at 10^-6 M after 48 hrs by sulforhodamine B assay; settings: OVCAR-8, 48 h, read-out: Activity
IGROV-1 = experiment: Growth inhibition of human IGROV1 cells assessed as cell growth at 10^-4 M after 48 hrs by sulforhodamine B assay; settings: IGROV-1, 48 h, read-out: Activity
T47D = experiment: Growth inhibition of human T47D cells assessed as cell growth at 10^-7 M after 48 hrs by sulforhodamine B assay; settings: read-out: Activity
Malme-3M = experiment: Growth inhibition of human MALME-3M cells assessed as cell growth at 10^-6 M after 48 hrs by sulforhodamine B assay; settings: read-out: Activity
SK-MEL-2 = experiment: Growth inhibition of human SK-MEL-2 cells assessed as cell growth at 10^-6 M after 48 hrs by sulforhodamine B assay; settings: SK-MEL-2, 48 h, read-out: Activity
HT-29 = experiment: Growth inhibition of human HT-29 cells assessed as cell growth at 10^-7 M after 48 hrs by sulforhodamine B assay; settings: HT-29, 48 h, read-out: Activity
DU-145 = experiment: Growth inhibition of human DU145 cells assessed as cell growth at 10^-8 M after 48 hrs by sulforhodamine B assay; settings: DU-145, 48 h, read-out: Activity
NCI-H23 [8] = experiment: Growth inhibition of human NCI-H23 cells assessed as cell growth at 10^-7 M after 48 hrs by sulforhodamine B assay; settings: NCI-H23, 48 h, read-out: Activity
A498 = experiment: Growth inhibition of human A498 cells assessed as cell growth at 10^-7 M after 48 hrs by sulforhodamine B assay; settings: A498, 48 h, read-out: Activity
LOX IMVI = experiment: Growth inhibition of human LOXIMVI cells assessed as cell growth at 10^-6 M after 48 hrs by sulforhodamine B assay; settings: read-out: Activity
MDA-MB-468 = experiment: Growth inhibition of human MDA-MB-468 cells assessed as cell growth at 10^-6 M after 48 hrs by sulforhodamine B assay; settings: MDA-MB-468, 48 h, read-out: Activity
NCI-H226 = experiment: Growth inhibition of human NCI-H226 cells assessed as cell growth at 10^-5 M after 48 hrs by sulforhodamine B assay; settings: NCI-H226, 48 h, read-out: Activity
MDA-MB-435 = experiment: Growth inhibition of human MDA-MB-435 cells assessed as cell growth at 10^-6 M after 48 hrs by sulforhodamine B assay; settings: MDA-MB-435, 48 h, read-out: Activity
SR = experiment: Growth inhibition of human SR cells assessed as cell growth at 10^-8 M after 48 hrs by sulforhodamine B assay; settings: read-out: Activity
SK-MEL-28 = experiment: Growth inhibition of human SK-MEL-28 cells assessed as cell growth at 10^-8 M after 48 hrs by sulforhodamine B assay; settings: SK-MEL-28, 48 h, read-out: Activity
OVCAR-4 [9] = experiment: Growth inhibition of human OVCAR4 cells assessed as cell growth […] after 48 hrs by sulforhodamine B assay; settings: OVCAR-4, 48 h, read-out: Activity
MDA-MB-231 = experiment: Growth inhibition of human MDA-MB-231 cells assessed as cell growth at 10^-8 M after 48 hrs by sulforhodamine B assay; settings: MDA-MB-231, 48 h, read-out: Activity
[10] = Growth inhibition of human HCC2998 cells assessed as cell growth at 10^-5 M after 48 hrs by sulforhodamine B assay; settings: HCC 2998, 48 h, read-out: Activity
SK-MEL-5 = experiment: Growth inhibition of human SK-MEL-5 cells assessed as cell growth at 10^-4 M after 48 hrs by sulforhodamine B assay; settings: SK-MEL-5, 48 h, read-out: Activity
UACC-62 [11] = experiment: Growth inhibition of human UACC62 cells assessed as cell growth at 10^-7 M after 48 hrs by sulforhodamine B assay; settings: UACC-62, 48 h, read-out: Activity

Structure (SMILES)	growth at 0.1 µM (NCI-H322M) [%]	growth at 0.1 µM (TK-10) [%]	growth at 0.1 µM (CCRF-CEM) [%]	growth at 1 µM (RXF 393) [%]	growth at 0.01 µM (SF-268) [%]	growth at 1 µM (SNB-75 [1]) [%]	growth at 100 µM (K562) [%]	growth at 100 µM (UACC-62 [2]) [%]	growth at 100 µM (SNB-75 [3]) [%]	growth at 0.1 µM (BT-549) [%]	growth at 1 µM (HOP-62) [%]	growth at 0.1 µM (OVCAR-4 [4]) [%]	growth at 10 µM (SNB-75 [5]) [%]	growth at 0.01 µM (OVCAR-4 [6]) [%]	growth at 0.01 µM (HL-60(TB)) [%]	growth at 10 µM (NCI-H23 [7]) [%]	growth at 1 µM (HOP-92) [%]	growth at 1 µM (OVCAR-8) [%]	growth at 100 µM (IGROV-1) [%]	growth at 0.1 µM (T47D) [%]	other results
COc1cc(-c2nn(-c3cccc(NC(=O)c4ccccc4)c3)cc2-c2ccncc2)ccc1Cl	85	97	101	35	95	39	11	19	11	88	72	95	1	93	96	21	15	50	17	92	growth at 1 µM (Malme-3M): 38%; growth at 1 µM (SK-MEL-2): 22%; growth at 0.1 µM (HT-29): 98%; growth at 0.01 µM (DU-145): 104%; growth at 0.1 µM (NCI-H23 [8]): 91%; growth at 0.1 µM (A498): 89%; growth at 1 µM (LOX IMVI): 36%; growth at 1 µM (MDA-MB-468): 17%; growth at 10 µM (NCI-H226): 26%; growth at 1 µM (MDA-MB-435): -28%; growth at 0.01 µM (SR): 94%; growth at 0.01 µM (SK-MEL-28): 99%; growth at 100 µM (OVCAR-4 [9]): 30%; growth at 0.01 µM (MDA-MB-231): 103%; growth at 10 µM [10]: 7%; growth at 100 µM (SK-MEL-5): -85%; growth at 0.1 µM (UACC-62 [11]): 96%
COc1cc(-c2nn(-c3cccc(NC(=O)c4ccc(N5CCOCC5)c(C(F)(F)F)c4)c3)cc2-c2ccncc2)ccc1Cl	100	106	73	-16	97	-2	3	-32	2	95	38	92	-13	97	109	4	-5	30	-15	93	growth at 1 µM (Malme-3M): 33%; growth at 1 µM (SK-MEL-2): 24%; growth at 0.1 µM (HT-29): 106%; growth at 0.01 µM (DU-145): 108%; growth at 0.1 µM (NCI-H23 [8]): 92%; growth at 0.1 µM (A498): 77%; growth at 1 µM (LOX IMVI): 29%; growth at 1 µM (MDA-MB-468): -9%; growth at 10 µM (NCI-H226): 15%; growth at 1 µM (MDA-MB-435): -33%; growth at 0.01 µM (SR): 91%; growth at 0.01 µM (SK-MEL-28): 100%; growth at 100 µM (OVCAR-4 [9]): 18%; growth at 0.01 µM (MDA-MB-231): 95%; growth at 10 µM [10]: -22%; growth at 100 µM (SK-MEL-5): -85%; growth at 0.1 µM (UACC-62 [11]): 56%
